According to article PMC9959048, “Lipidation of Naturally Occurring α-Helical Antimicrobial Peptides as a Promising Strategy for Drug Design” (International Journal of Molecular Sciences, 2023):
≈ marks a conversion by molar mass, not a printed value. Residues, ends and D or L forms follow the SMILES beside them. *: point of attachment. Decanoyl = CCCCCCCCCC(=O)*; Octanoyl = CCCCCCCC(=O)*

Key:
POPG LUVs = assay: Isothermal titration calorimetry, binding to POPG LUVs; conditions: ITC, 25 °C
Experimental: (§1) Large unilamellar vesicles (LUV) were obtained by extrusion of MLV liposomes through polycarbonate membrane filters with a pore diameter of 100 nm (Whatman International Ltd., Kent, UK) using a mini-extruder (Avanti Polar Lipids, Inc., Alabaster, AL, USA).
The thermodynamic parameters of the interactions of the lipopeptides with POPG and POPC liposomes were determined by isothermal titration calorimetry (ITC). Measurements were performed at 25 °C using an AutoITC microcalorimeter (MicroCal Inc., Northampton, MA, USA) with a 1.4491 mL sample and reference cells. The experiment consisted in the titration of a buffered peptide solution with a concentration of 0.05 and/or 0.07 mM with a buffered solution containing POPG or POPC LUVs with a lipid concentration of 1.3 and 1.8 mM (10.02 µL; 29 injections, 2 µL for the first injection only), as it was described previously. The result of the titration was a thermogram showing a series of peaks corresponding to the titration steps. A titration curve was obtained after integration of the peak areas. The obtained isotherms were fitted to the “one set of sites” or “two sets of sites” models available in the ORIGIN 7.0 (MicroCal Inc., Northampton, MA, USA), which made it possible to determine the enthalpy (ΔH), the binding constant (KITC) and the stoichiometry (N) of the interactions between the lipopeptide and the lipids. The following formula was used to calculate the entropy change (ΔS) and the Gibbs free energy (ΔG): ΔG=−RTln(55.5KITC)=ΔH−TΔS where: factor 55.5 is the molar concentration of water, R is the gas constant (1.986 cal·mol^−1·K^−1), and T is the absolute temperature.

S. epidermidis PCM2118 = type: cell-based, Staphylococcus epidermidis; conditions: Mueller–Hinton broth, inoculum 5 × 10^5 CFU/mL, 24 h, 37 °C, absorbance 600 nm, triplicate
Experimental: (§2) The evaluation of the antimicrobial activity of the synthesized lipopeptides was performed against the following reference bacterial and fungal strains: Staphylococcus aureus PCM 1650, Staphylococcus aureus PCM 2054, Staphylococcus epidermidis PCM 521, Staphylococcus epidermidis PCM 2118, Escherichia coli PCM 2057, Candida albicans PCM 2566, Candida glabrata CCM 8270, Candida krusei CCM 8271, Candida parapsilosis CCM 8260.
(§3) For the initial cultivation of the bacteria and fungi, Luria-Bertani broth (LB, Biomaxima, Lublin, Poland) and Sabouraud Dextrose broth (SB, Biomaxima, Lublin, Poland) were used, respectively. Antimicrobial properties of the compounds were analyzed through the determination of MIC (minimal inhibitory concentrations) by my means of the serial micro-dilution technique according to the guidelines of Clinical & Laboratory Standard Institute (CLSI) established for aerobic bacteria and yeasts.
(§4) According to the procedures, Mueller–Hinton broth (MHB) was used as the working medium for the analysis of the bacterial susceptibility, while RPMI-1640 (with L-glutamine, without sodium bicarbonate) growth medium buffered with MOPS (morpholinepropanesulfonic acid) and supplemented with 2% glucose was used for the experiments with the fungi.
(§5) The experiments were carried out for 24 h at 37 and 35 °C for the bacteria and fungi, respectively. Then, the absorbance was measured at 600 nm for each well of the 96-well plate using a microplate reader (Sunrise TM, Tecan Trading AG, Männedorf, Switzerland). Based on the obtained results, the degree of inhibition of the growth of microorganisms (expressed in %) in the presence of the tested compounds range was determined with respect to the control probes. Inoculated wells without peptide were treated as a positive control (100% growth), and the wells containing working medium only were defined as a negative control (0% growth). All measurements were repeated in triplicate.

S. epidermidis PCM521 = type: cell-based, Staphylococcus epidermidis; conditions: Mueller–Hinton broth, inoculum 5 × 10^5 CFU/mL, 24 h, 37 °C, absorbance 600 nm, triplicate
Experimental: as §2, §3, §4, §5

S. aureus cells = assay: TEM of S. aureus cells treated with lipopeptide; type: cell-based, Staphylococcus aureus; conditions: C8-LL-I at 25 µg/mL, 5 × 10^5 CFU/mL, incubated overnight at 37 °C
Experimental: The cells were centrifuged (8000 rpm, 15 min) and resuspended in fresh media to obtain a high-density cell suspension (5 × 10^5 CFU/mL). […] Afterward, the cells were centrifuged (8000 rpm, 15 min) and washed three times with PBS. The bacterial cells were fixed with 2.5% glutaraldehyde buffered at pH 6.5 with 0.1 M sodium cacodylate (Polysciences, Warrington, PA, USA) for 6 h at room temperature, as described earlier [52]. Additional fixation was performed with a 1% osmium tetroxide solution (Polysciences, Warrington, PA, USA) for 2 h at 4 °C. The cells were centrifuged and resuspended in 0.1 M cacodylate buffer, centrifuged again and dehydrated with ethanol. The bacteria were embedded in Epon 812 resin (Sigma-Aldrich, Darmstadt, Germany) at room temperature. A Leica UC7 ultramicrotome (Wetzlar, Germany) was used to obtain ultra-thin sections (55 nm). As contrasting agents, lead citrate and uranyl acetate were used. Cells were visualized using a Tecnai Spirit BioTWIN (EFI, Hillsboro, OR, USA) microscope at 120 kV.

[1] = Dynamic light scattering of lipopeptide assemblies; type: physicochemical; conditions: DLS, sonicated 10 min, incubated 1 h, 90° side scatter
Experimental: The hydrodynamic diameters of the lipopeptide nanoaggregates were examined by the Litesizer 500 (Anton-Paar GmbH, Graz, Austria) at 25 °C. The measurements were carried out at various lipopeptide concentrations ranging from 0.5 to 2 mM and from 0.25 to 2 mM, in water and PBS, respectively. Two-fold serial dilutions were used to obtain the sequential concentrations. Each sample was sonicated for 10 min followed by incubation for 1 h at 25 °C and transferred to the polystyrene cuvette. The detector was positioned at a side scatter position (90°). The analysis of the obtained results and report generation was performed with KalliopeTM software (Anton-Paar GmbH, Graz, Austria).

C. parapsilosis CCM 8260 = type: cell-based, Candida parapsilosis; conditions: RPMI-1640 with MOPS and 2% glucose, inoculum 5 × 10^3 CFU/mL, 24 h, 35 °C, absorbance 600 nm, triplicate
Experimental: as §2, §3, §4, §5

C. albicans PCM2566 = type: cell-based, Candida albicans; conditions: RPMI-1640 with MOPS and 2% glucose, inoculum 5 × 10^3 CFU/mL, 24 h, 35 °C, absorbance 600 nm, triplicate
Experimental: as §2, §3, §4, §5

POPC liposomes = assay: CD, α-helix content in POPC liposomes; type: physicochemical; conditions: 25 °C, peptide 0.15 mg/mL, 1.3 mM POPC; for α-Helix percentage, POPC: from ellipticity at 222 nm
Experimental: as §1
(§6) CD experiments were carried out at 25 °C using a Jasco J-815 spectropolarimeter in the wavelength range 185–260 nm. The concentration of the lipopeptides was 0.15 mg/mL. The CD spectra were recorded in water, PBS (pH 7.4), 1.3 mM POPC and 1.3 mM POPG. The results are plotted as the mean molar ellipticity per one amino acid residue (MRME, deg cm^2 dmol^−1) as a function of the wavelength (nm). Additionally, we performed a conformational analysis of the selected compounds in the presence of S. aureus cells. […] The mixtures were then incubated for 2 h before recording the CD spectra.
(§7) The percentage of the α-helical structure was calculated based on the mean molar ellipticity at 222 nm using the formula: fH=θ222−3000/−36000−3000·100% where θ222 corresponds to the value of the mean molar ellipticity at a wavelength of 222 nm.

C. krusei CCM8271 = type: cell-based, Candida krusei; conditions: RPMI-1640 with MOPS and 2% glucose, inoculum 5 × 10^3 CFU/mL, 24 h, 35 °C, absorbance 600 nm, triplicate
Experimental: as §2, §3, §4, §5

C. glabrata CCM8270 = type: cell-based, Candida glabrata; conditions: RPMI-1640 with MOPS and 2% glucose, inoculum 5 × 10^3 CFU/mL, 24 h, 35 °C, absorbance 600 nm, triplicate
Experimental: as §2, §3, §4, §5

S. aureus PCM2054 = type: cell-based, Staphylococcus aureus; conditions: Mueller–Hinton broth, inoculum 5 × 10^5 CFU/mL, 24 h, 37 °C, absorbance 600 nm, triplicate
Experimental: as §2, §3, §4, §5

S. aureus PCM1650 = type: cell-based, Staphylococcus aureus; conditions: Mueller–Hinton broth, inoculum 5 × 10^5 CFU/mL, 24 h, 37 °C, absorbance 600 nm, triplicate
Experimental: as §2, §3, §4, §5

E. coli PCM2057 = type: cell-based, Escherichia coli; conditions: Mueller–Hinton broth, inoculum 5 × 10^5 CFU/mL, 24 h, 37 °C, absorbance 600 nm, triplicate
Experimental: as §2, §3, §4, §5

[2] = test system: human breast cancer cells (MCF-7 line, ATCC); assay: MTT cytotoxicity assay; type: cell-based; conditions: IC50 against HaCaT divided by IC50 for MCF-7
Experimental: (§8) The prepared plates were further incubated for 48 h. […] The control cell viability was assumed to be 100%. Three independent experiments were carried out in three repetitions.

[3] = test system: human prostate cancer cells (PC3 line, ATCC); assay: MTT cytotoxicity assay; type: cell-based; conditions: IC50 against HaCaT divided by IC50 for PC3
Experimental: as §8

POPG liposomes = assay: CD, α-helix content in POPG liposomes; type: physicochemical; conditions: 25 °C, peptide 0.15 mg/mL, 1.3 mM POPG; for α-Helix percentage, POPG: from ellipticity at 222 nm
Experimental: as §1, §6, §7

POPC LUVs = assay: Isothermal titration calorimetry, binding to POPC LUVs; conditions: ITC, 25 °C, 1.3 mM POPC to 0.05 mM C10-LL-I
Experimental: as §1
The thermodynamic parameters of the interactions of the lipopeptides with POPG and POPC liposomes were determined by isothermal titration calorimetry (ITC). Measurements were performed at 25 °C using an AutoITC microcalorimeter (MicroCal Inc., Northampton, MA, USA) with a 1.4491 mL sample and reference cells. The experiment consisted in the titration of a buffered peptide solution with a concentration of 0.05 and/or 0.07 mM with a buffered solution containing POPG or POPC LUVs with a lipid concentration of 1.3 and 1.8 mM (10.02 µL; 29 injections, 2 µL for the first injection only), as it was described previously. The result of the titration was a thermogram showing a series of peaks corresponding to the titration steps. A titration curve was obtained after integration of the peak areas. The obtained isotherms were fitted to the “one set of sites” or “two sets of sites” models available in the ORIGIN 7.0 (MicroCal Inc., Northampton, MA, USA), which made it possible to determine the enthalpy (ΔH), the binding constant (KITC) and the stoichiometry (N) of the interactions between the lipopeptide and the lipids. […]

[4] = 0.05 or 0.07 mM peptide titrated with 1.3 or 1.8 mM POPG LUVs, one set of sites model (C10-LL-I: two sets of sites, first line)

Row | Compound | pKITC, POPG (POPG LUVs; [4]) | MIC, S. epidermidis PCM2118 (S. epidermidis PCM2118) [µg/mL] | MIC, S. epidermidis PCM521 (S. epidermidis PCM521) [µg/mL] | MIC, C. parapsilosis CCM 8260 (C. parapsilosis CCM 8260) [µg/mL] | MIC, C. albicans PCM2566 (C. albicans PCM2566) [µg/mL] | θ222/θ208, POPC (POPC liposomes) | α-Helix percentage, POPC (POPC liposomes) [%] | MIC, C. krusei CCM8271 (C. krusei CCM8271) [µg/mL] | MIC, C. glabrata CCM8270 (C. glabrata CCM8270) [µg/mL] | MIC, S. aureus PCM2054 (S. aureus PCM2054) [µg/mL] | MIC, S. aureus PCM1650 (S. aureus PCM1650) [µg/mL] | MIC, E. coli PCM2057 (E. coli PCM2057) [µg/mL] | SI MCF-7 [2] | SI PC3 [3] | θ222/θ208, POPG (POPG liposomes) | α-Helix percentage, POPG (POPG liposomes) [%] | other results
1 | CCCCCCCC(=O)N[C@H](C(=O)N[C@@H](CC(N)=O)C(=O)N[C@@H](Cc1c[nH]c2ccccc12)C(=O)N[C@@H](CCCCN)C(=O)N[C@@H](CCCCN)C(=O)N[C@H](C(=O)N[C@@H](CC(C)C)C(=O)NCC(=O)N[C@@H](CCCCN)C(=O)N[C@H](C(=O)N[C@H](C(=O)N[C@@H](CCCCN)C(=O)N[C@H](C(=O)N[C@@H](C)C(=O)N[C@@H](CCCCN)C(N)=O)C(C)C)[C@@H](C)CC)[C@@H](C)CC)C(C)C)C(C)C [C8-LL-I] (Octanoyl-VNWKKVLGKIIKVAK-NH2) | 3.98 ± 0.06 | 6.25 (≈ 3.38 µM) | 6.25 (≈ 3.38 µM) | 12.5 (≈ 6.76 µM) | >50 | 0.85 | 48 | 12.5 (≈ 6.76 µM) | 25 (≈ 13.5 µM) | 12.5 (≈ 6.76 µM) | 12.5 (≈ 6.76 µM) | 25 (≈ 13.5 µM) | 1.42 | 0.76 | 0.90 | 27 | effect on S. aureus cells (TEM) (S. aureus cells): induced thinning of the membrane and its disintegration; hydrodynamic diameter, peak of highest scattering intensity ([1]; 0.25 mM in PBS pH 7.4, 25 °C): 3360 ± 165 nm; hydrodynamic diameter, peak of highest scattering intensity ([1]; 0.5 mM salt-free aqueous solution, 25 °C): 404 ± 37 nm; hydrodynamic diameter ([1]; 2 mM in PBS pH 7.4, 25 °C): 3844 ± 1031 nm
2 | CCCCCCCCCC(=O)N[C@H](C(=O)N[C@@H](CC(N)=O)C(=O)N[C@@H](Cc1c[nH]c2ccccc12)C(=O)N[C@@H](CCCCN)C(=O)N[C@@H](CCCCN)C(=O)N[C@H](C(=O)N[C@@H](CC(C)C)C(=O)NCC(=O)N[C@@H](CCCCN)C(=O)N[C@H](C(=O)N[C@H](C(=O)N[C@@H](CCCCN)C(=O)N[C@H](C(=O)N[C@@H](C)C(=O)N[C@@H](CCCCN)C(N)=O)C(C)C)[C@@H](C)CC)[C@@H](C)CC)C(C)C)C(C)C [C10-LL-I] (Decanoyl-VNWKKVLGKIIKVAK-NH2) | 6.02 ± 1.09 | 6.25 (≈ 3.33 µM) | 12.5 (≈ 6.66 µM) | 6.25 (≈ 3.33 µM) | >50 | 0.88 | 40 | 12.5 (≈ 6.66 µM) | 25 (≈ 13.3 µM) | 12.5 (≈ 6.66 µM) | 12.5 (≈ 6.66 µM) | 25 (≈ 13.3 µM) | 1.34 | 0.84 | 0.98 | 19 | pKITC, POPG (POPG LUVs; two sets of sites model, second line): 4.69 ± 0.54; pKITC, POPC (POPC LUVs): 4.42 ± 0.24
